Data taken from the SangsterLogP compilation.

Compound	logP
Clc1ccc(-c2c(Cl)c(Cl)c(Cl)c(Cl)c2Cl)cc1	6.87
Clc1cc(Cl)c(Cl)c(-c2cc(Cl)cc(Cl)c2Cl)c1	6.63
Clc1cc(Cl)c(Cl)c(-c2cc(Cl)c(Cl)cc2Cl)c1	6.71
Clc1cc(Cl)c(-c2c(Cl)ccc(Cl)c2Cl)c(Cl)c1	6.31
Clc1ccc(-c2cc(Cl)c(Cl)c(Cl)c2Cl)c(Cl)c1	6.8
Clc1cc(Cl)c(-c2c(Cl)ccc(Cl)c2Cl)cc1Cl	6.46
Clc1cc(Cl)c(Cl)c(-c2ccc(Cl)c(Cl)c2Cl)c1	6.79
Clc1cc(Cl)c(Cl)c(-c2c(Cl)ccc(Cl)c2Cl)c1	6.41
Clc1cc(Cl)cc(-c2cc(Cl)c(Cl)c(Cl)c2Cl)c1	7.01
Clc1cccc(-c2c(Cl)c(Cl)c(Cl)c(Cl)c2Cl)c1	6.84
Clc1cccc(-c2c(Cl)cc(Cl)c(Cl)c2Cl)c1Cl	6.43
Clc1ccccc1-c1c(Cl)c(Cl)c(Cl)c(Cl)c1Cl	6.49
Clc1cc(Cl)c(-c2cc(Cl)c(Cl)c(Cl)c2)c(Cl)c1	6.74
Clc1cc(Cl)c(-c2cc(Cl)cc(Cl)c2Cl)c(Cl)c1	6.45
Clc1ccc(-c2c(Cl)c(Cl)cc(Cl)c2Cl)c(Cl)c1	6.52
Clc1ccc(-c2c(Cl)ccc(Cl)c2Cl)c(Cl)c1Cl	6.61
Clc1cc(Cl)cc(-c2c(Cl)cc(Cl)c(Cl)c2Cl)c1	6.68
Clc1cc(Cl)c(Cl)c(-c2c(Cl)cccc2Cl)c1Cl	6.1
Clc1cc(-c2c(Cl)cccc2Cl)c(Cl)c(Cl)c1Cl	6.5
Clc1cc(Cl)c(-c2c(Cl)cccc2Cl)c(Cl)c1Cl	6.28
Clc1cc(Cl)cc(-c2c(Cl)c(Cl)cc(Cl)c2Cl)c1	6.68
Clc1cccc(-c2c(Cl)c(Cl)cc(Cl)c2Cl)c1Cl	6.42
Clc1cc(Cl)c(Cl)c(-c2cc(Cl)c(Cl)c(Cl)c2)c1	7.02
Clc1ccc(Cl)c(-c2c(Cl)ccc(Cl)c2Cl)c1Cl	6.27
Clc1cc(Cl)c(-c2cc(Cl)c(Cl)cc2Cl)c(Cl)c1	6.46
